Legend:
[1] = biological target: T1, mouse Siglec-2-Fc-Avi (CD22) (Mus musculus, UniProt P35329); assay: SPR binding affinity to mouse CD22; settings: steady-state analysis
T1 construct: made in house
T1 sequence (P35329 22-708 limits assumed): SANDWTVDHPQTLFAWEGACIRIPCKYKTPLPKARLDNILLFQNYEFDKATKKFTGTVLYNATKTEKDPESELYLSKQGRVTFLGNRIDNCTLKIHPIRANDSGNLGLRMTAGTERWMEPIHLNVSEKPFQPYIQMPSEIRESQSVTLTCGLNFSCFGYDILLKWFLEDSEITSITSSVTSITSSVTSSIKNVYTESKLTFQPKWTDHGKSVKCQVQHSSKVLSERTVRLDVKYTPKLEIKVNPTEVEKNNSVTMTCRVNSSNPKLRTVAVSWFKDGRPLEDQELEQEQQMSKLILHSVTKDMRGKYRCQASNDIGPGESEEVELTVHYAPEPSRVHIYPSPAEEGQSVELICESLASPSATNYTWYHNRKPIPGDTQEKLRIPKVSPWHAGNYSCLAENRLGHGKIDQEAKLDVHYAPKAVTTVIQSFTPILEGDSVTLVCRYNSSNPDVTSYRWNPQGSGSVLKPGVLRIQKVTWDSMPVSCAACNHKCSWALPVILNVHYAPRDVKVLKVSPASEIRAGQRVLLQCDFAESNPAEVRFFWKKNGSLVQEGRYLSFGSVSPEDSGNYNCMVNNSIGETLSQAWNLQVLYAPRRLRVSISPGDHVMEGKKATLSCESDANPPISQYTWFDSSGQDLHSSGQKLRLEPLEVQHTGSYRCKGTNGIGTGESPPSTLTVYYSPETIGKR
Outline: (§1)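 Native sialic acid residues are removed from the receptor enzymatically (4 hours at 37° C.) prior to streptavidin capture of the biotinylated protein. Ligand compounds then flow over in HEPES-buffered saline, pH 7.5, containing 0.05% Tween-20 and 1% DMSO, and binding is evaluated at steady state.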

[2] = biological target: T2, human Siglec-2/CD22 protein (Homo sapiens, UniProt P20273); assay: SPR binding affinity to human CD22; settings: steady-state analysis
T2 construct: purchased Acro Biosystems SI2-H82E3
T2 sequence (P20273 20-847): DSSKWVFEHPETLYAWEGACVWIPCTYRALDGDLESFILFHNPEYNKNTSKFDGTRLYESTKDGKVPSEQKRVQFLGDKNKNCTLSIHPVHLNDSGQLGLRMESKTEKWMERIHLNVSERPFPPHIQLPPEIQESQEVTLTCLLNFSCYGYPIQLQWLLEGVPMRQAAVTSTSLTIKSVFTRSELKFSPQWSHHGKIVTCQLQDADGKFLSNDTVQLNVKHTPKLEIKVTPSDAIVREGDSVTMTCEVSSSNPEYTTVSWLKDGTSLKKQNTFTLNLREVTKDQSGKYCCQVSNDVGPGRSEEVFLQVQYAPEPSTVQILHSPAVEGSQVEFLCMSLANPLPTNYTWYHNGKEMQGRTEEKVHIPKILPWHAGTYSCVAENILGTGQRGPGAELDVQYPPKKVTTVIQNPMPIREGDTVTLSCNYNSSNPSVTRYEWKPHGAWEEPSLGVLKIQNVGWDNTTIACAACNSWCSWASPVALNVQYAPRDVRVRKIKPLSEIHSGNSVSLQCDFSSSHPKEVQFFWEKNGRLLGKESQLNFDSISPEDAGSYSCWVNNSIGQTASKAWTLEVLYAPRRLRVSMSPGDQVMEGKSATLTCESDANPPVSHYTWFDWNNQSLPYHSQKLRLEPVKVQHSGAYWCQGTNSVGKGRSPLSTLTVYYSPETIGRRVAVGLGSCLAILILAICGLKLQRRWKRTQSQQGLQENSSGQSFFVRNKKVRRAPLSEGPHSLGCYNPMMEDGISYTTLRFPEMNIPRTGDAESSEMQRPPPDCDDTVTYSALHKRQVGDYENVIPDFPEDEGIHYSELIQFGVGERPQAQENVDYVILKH
Outline: as §1

cynomolgus Siglec-2/CD22 = cynomolgus Siglec-2/CD22 (Macaca fascicularis, UniProt A0A2K5WCZ6); assay: biochemical; format: binding; settings: SPR, steady-state analysis; read-out: Affinity cyno CD22
cynomolgus Siglec-2/CD22, sequence (A0A2K5WCZ6 entry or part of it): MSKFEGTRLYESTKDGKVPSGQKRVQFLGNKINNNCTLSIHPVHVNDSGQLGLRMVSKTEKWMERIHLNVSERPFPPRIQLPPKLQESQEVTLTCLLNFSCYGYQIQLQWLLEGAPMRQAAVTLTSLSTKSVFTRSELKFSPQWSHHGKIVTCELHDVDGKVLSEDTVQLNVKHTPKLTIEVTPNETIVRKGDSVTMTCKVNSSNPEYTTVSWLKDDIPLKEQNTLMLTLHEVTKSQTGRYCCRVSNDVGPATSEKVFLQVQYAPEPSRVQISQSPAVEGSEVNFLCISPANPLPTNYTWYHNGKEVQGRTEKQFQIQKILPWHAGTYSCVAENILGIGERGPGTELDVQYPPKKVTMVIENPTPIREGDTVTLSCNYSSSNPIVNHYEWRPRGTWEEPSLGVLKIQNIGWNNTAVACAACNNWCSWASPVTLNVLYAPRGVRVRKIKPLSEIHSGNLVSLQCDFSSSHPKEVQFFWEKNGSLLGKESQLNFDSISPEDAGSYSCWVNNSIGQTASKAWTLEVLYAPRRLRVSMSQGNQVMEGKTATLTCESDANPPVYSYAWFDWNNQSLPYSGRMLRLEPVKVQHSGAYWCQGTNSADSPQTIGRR
Outline: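 Compound binding measured by steady-state SPR analysis, 120 s dissociation, in HEPES-NaCl-Tween buffer pH 7.5 containing 1% DMSO, DMSO solvent-corrected. Surface: cyno CD22, sialic acids first stripped by SialoExo for 4 h at 37° C., then amine-coupled onto CM5.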

In the case of `C#CCOCCOCCO[C@]1(C(=O)O)C[C@H](O)[C@@H](NC(=O)CO)[C@H]([C@H](O)[C@H](O)CNC(=O)C[C@H]2CC[C@@H](O)CC2)O1` [Compound 200, (2R,4S,5R,6R)-6-((1R,2R)-1,2-dihydroxy-3-(2-((1s,4S)-4-hydroxycyclohexyl)acetamido)propyl)-4-hydroxy-5-(2-hydroxyacetamido)-2-(2-(2-(prop-2-yn-1-yloxy)ethoxy)ethoxy)tetrahydro-2H-pyran-2-carboxylic acid], the Kd [1] is reported as > 10000 nM, the Kd [2] is reported as > 10000 nM and the Kd (cynomolgus Siglec-2/CD22) is reported as > 10000 nM.

With `C#CCOCCOCCO[C@]1(C(=O)O)C[C@H](O)[C@@H](NC(=O)CO)[C@H]([C@H](O)[C@H](O)CNC(=O)c2cccc(Cl)c2)O1` [Compound 201, (2R,4S,5R,6R)-6-((1R,2R)-3-(3-chlorobenzamido)-1,2-dihydroxypropyl)-4-hydroxy-5-(2-hydroxyacetamido)-2-(2-(2-(prop-2-yn-1-yloxy)ethoxy)ethoxy)tetrahydro-2H-pyran-2-carboxylic acid] the Kd [1] was > 10000 nM, the Kd [2] was > 10000 nM and the Kd (cynomolgus Siglec-2/CD22) was > 10000 nM.

With `C#CCOCCOCCO[C@]1(C(=O)O)C[C@H](O)[C@@H](NC(=O)CO)[C@H]([C@H](O)[C@H](O)CNC(=O)c2ccccc2)O1` [Compound 202, (2R,4S,5R,6R)-6-((1R,2R)-3-benzamido-1,2-dihydroxypropyl)-4-hydroxy-5-(2-hydroxyacetamido)-2-(2-(2-(prop-2-yn-1-yloxy)ethoxy)ethoxy)tetrahydro-2H-pyran-2-carboxylic acid] the Kd [1] was 1000 to 10000 nM, the Kd [2] was > 10000 nM and the Kd (cynomolgus Siglec-2/CD22) was < 1000 nM.

For `CCCCCC[C@H](O)[C@]1(C(=O)O)C[C@H](O)[C@@H](NC(=O)CO)[C@H]([C@H](O)[C@H](O)CNC(=O)Cc2ccc(Cl)cc2)O1` [Compound 203, (2S,4S,5R,6R)-6-((1R,2R)-3-(2-(4-chlorophenyl)acetamido)-1,2-dihydroxypropyl)-4-hydroxy-5-(2-hydroxyacetamido)-2-((S)-1-hydroxyheptyl)tetrahydro-2H-pyran-2-carboxylic acid], the Kd [1] was 1000 to 10000 nM, the Kd [2] was < 1000 nM and the Kd (cynomolgus Siglec-2/CD22) was < 1000 nM.

With `C#CCCOc1ccc(CO[C@]2(C(=O)O)C[C@H](O)[C@@H](NC(N)=O)[C@H]([C@H](O)[C@H](O)CNC(=O)Cc3ccc(Cl)cc3)O2)cc1` [Compound 205, (2R,4S,5R,6R)-2-((4-(but-3-yn-1-yloxy)benzyl)oxy)-6-((1R,2R)-3-(2-(4-chlorophenyl)acetamido)-1,2-dihydroxypropyl)-4-hydroxy-5-ureidotetrahydro-2H-pyran-2-carboxylic acid] the Kd [1] was < 1000 nM, the Kd [2] was < 1000 nM and the Kd (cynomolgus Siglec-2/CD22) was < 1000 nM.

For `CCCCCCC[C@]1(C(=O)O)C[C@H](O)[C@@H](NC(=O)CO)[C@H]([C@H](O)[C@H](O)CNC(=O)Cc2ccc(Cl)cc2)O1` [Compound 206, (2R,4S,5R,6R)-6-((1R,2R)-3-(2-(4-chlorophenyl)acetamido)-1,2-dihydroxypropyl)-2-heptyl-4-hydroxy-5-(2-hydroxyacetamido)tetrahydro-2H-pyran-2-carboxylic acid], the Kd [1] was 1000 to 10000 nM, the Kd [2] was < 1000 nM and the Kd (cynomolgus Siglec-2/CD22) was < 1000 nM.

Work on `CCCNC(=O)CCCCCCO[C@]1(C(=O)O)C[C@H](O)[C@@H](NC(=O)CO)[C@H]([C@H](O)[C@H](O)CNC(=O)Cc2cccc(O)c2)O1` [Compound 207, (2R,4S,5R,6R)-6-((1R,2R)-1,2-dihydroxy-3-(2-(3-hydroxyphenyl)acetamido)propyl)-4-hydroxy-5-(2-hydroxyacetamido)-2-((7-oxo-7-(propylamino)heptyl)oxy)tetrahydro-2H-pyran-2-carboxylic acid] yielded a Kd [1] of 1000 to 10000 nM, a Kd [2] of 1000 to 10000 nM and a Kd (cynomolgus Siglec-2/CD22) of 1000 to 10000 nM.

In the case of `C#CCOCCCCCCO[C@]1(C(=O)O)C[C@H](O)[C@@H](NC(=O)Cc2nn[nH]n2)[C@H]([C@H](O)[C@H](O)CNC(=O)Cc2ccc(Cl)cc2)O1` [Compound 208, (2R,4S,5R,6R)-5-(2-(2H-tetrazol-5-yl)acetamido)-6-((1R,2R)-3-(2-(4-chlorophenyl)acetamido)-1,2-dihydroxypropyl)-4-hydroxy-2-((6-(prop-2-yn-1-yloxy)hexyl)oxy)tetrahydro-2H-pyran-2-carboxylic acid], the Kd [1] is reported as > 10000 nM, the Kd [2] is reported as 1000 to 10000 nM and the Kd (cynomolgus Siglec-2/CD22) is reported as < 1000 nM.
